The values below come from paper PMC4488483, “Reversible Oxidation of a Conserved Methionine in the Nuclear Export Sequence Determines Subcellular Distribution and Activity of the Fungal Nitrate Regulator NirA” (PLoS Genetics, 2015).

Assay [1] addresses T1, FmoB (Aspergillus nidulans, UniProt Q5B5S0).
T1 construct: gene ANIA_04110; complete fmoB gene from cDNA, expressed in E. coli, HIS-Select and size exclusion purified, ~60 kDa on SDS-PAGE, FAD saturated
T1 sequence (Q5B5S0 1-492): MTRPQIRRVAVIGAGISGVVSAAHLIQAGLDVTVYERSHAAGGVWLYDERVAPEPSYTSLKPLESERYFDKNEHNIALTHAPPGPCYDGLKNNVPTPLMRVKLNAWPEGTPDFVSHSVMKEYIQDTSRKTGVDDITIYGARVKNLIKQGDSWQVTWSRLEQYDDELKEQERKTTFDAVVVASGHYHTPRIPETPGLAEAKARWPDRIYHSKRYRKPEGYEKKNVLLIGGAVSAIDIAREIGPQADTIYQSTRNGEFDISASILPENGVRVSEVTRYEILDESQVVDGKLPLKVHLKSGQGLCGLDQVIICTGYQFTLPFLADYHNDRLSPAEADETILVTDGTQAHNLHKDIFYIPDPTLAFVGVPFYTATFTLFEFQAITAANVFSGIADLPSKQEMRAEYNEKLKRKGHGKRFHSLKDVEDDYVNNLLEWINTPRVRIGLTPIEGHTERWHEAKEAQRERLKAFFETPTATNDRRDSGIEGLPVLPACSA
As to the kind of experiment: UV-visible absorbance spectrum of FAD saturated enzyme. The assay is classed as binding. The settings on record: purified recombinant FmoB.

Assay [2] concerns the target T1, FmoB. As to the kind of experiment: NADPH consumption, absorbance at […] nm. Format: biochemical. Particulars: 2 uM FmoB, 200 uM NADPH, 2 mM substrate.
In assay [3] the target is T1, FmoB. Kind of assay: HPLC of L-methionine sulfoxide formed. Format: biochemical. The settings on record: NADPH-dependent; up to 5 mM methionine; low rate.

Turning to `Cc1cc2nc3c(=O)[nH]c(=O)nc-3n(C[C@H](O)[C@H](O)[C@H](O)COP(=O)(O)OP(=O)(O)OC[C@H]3O[C@@H](n4cnc5c(N)ncnc54)[C@H](O)[C@@H]3O)c2cc1C` [FAD], the “UV-visible absorbance spectrum of FAD saturated enzyme” value at FmoB [1] is given as “An UV-visible absorbance spectra of FAD saturated FmoB is shown as inset”. As for `N[C@@H](CS)C(=O)O` [cysteine], the “NADPH consumption, absorbance at 340 nm” value at FmoB [2] was “free cysteine, dithiothreitol (DTT) or β-mercaptoethanol were favourable substrates for FmoB”.

In the case of `CSCC[C@H](N)C(=O)O` [L-methionine], the “HPLC of L-methionine sulfoxide formed” value at FmoB [3] is on record as “it is able to convert free methionine to the sulfoxide form”.
